From ChEMBL document CHEMBL3286288, “Diterpenes from the endangered goldenrod Solidago shortii” (2014)
Activity calls are given as the source filed them. The rule behind the calls is not given here.

Columns and labels:
NCI-H460 = assay: Growth inhibition of human NCI-H460 cells after 72 hrs at 10 uM; format: functional, cell-based
Staphylococcus aureus [1] = assay: Antibacterial activity against methicillin-resistant Staphylococcus aureus 108 assessed as growth inhibition up to 16 ug/ml after 24 hrs by broth microdilution method; format: functional, organism-based
Staphylococcus aureus [2] = assay: Antibacterial activity against methicillin-susceptible Staphylococcus aureus ATCC 25923 assessed as growth inhibition at 8 ug/ml after 24 hrs by broth microdilution method relative to control; format: functional; conditions: ATCC 25923, 24 h, read-out: GI
Staphylococcus aureus [3] = assay: Antibacterial activity against methicillin-susceptible Staphylococcus aureus ATCC 25923 assessed as growth inhibition at 64 ug/ml after 24 hrs by broth microdilution method; format: functional, organism-based

## C/C=C(/C)C(=O)O[C@H]1C[C@]2(C)[C@@H](CC[C@@H](OC(=O)C(F)(F)F)[C@]2(C)O)[C@](C)(CCC2=CC(=O)OC2)[C@@H]1C
NCI-H460
  growth inhibition (GI): inactive
Staphylococcus aureus [1]
  growth inhibition (GI): inactive

## C/C=C(/C)C(=O)O[C@H]1C[C@]2(C)[C@@H](CC[C@@H](O)[C@]2(C)O)[C@](C)(CCC2=CC(=O)OC2)[C@@H]1C
NCI-H460
  growth inhibition (GI): inactive
Staphylococcus aureus [1]
  growth inhibition (GI): inactive

## C[C@@H]1C[C@H]2C(=O)C(C)(C)[C@@H](O)CC[C@]2(O)[C@]1(C)CCC1=CC(=O)OC1
NCI-H460
  growth inhibition (GI): inactive
Staphylococcus aureus [1]
  growth inhibition (GI): inactive
Staphylococcus aureus [2]
  inhibition of growth at 8 µg/mL: 66%

## C[C@@H]1CC[C@]2(O)[C@H](C[C@H](O)C2(C)C)C(=O)[C@]1(C)CCC1=CC(=O)OC1
NCI-H460
  growth inhibition (GI): inactive
Staphylococcus aureus [1]
  growth inhibition (GI): inactive
Staphylococcus aureus [2]
  inhibition of growth at 8 µg/mL: 56%

## C/C=C(/C)C(=O)O[C@H]1C[C@]2(C)[C@@H](CC[C@H]3O[C@]32C)[C@](C)(CCC2=CC(=O)OC2)[C@@H]1C
Staphylococcus aureus [3]
  growth inhibition (GI): inactive
NCI-H460
  growth inhibition (GI): inactive
Staphylococcus aureus [1]
  growth inhibition (GI): inactive

## C/C=C(/C)C(=O)O[C@H]1C[C@]2(C)[C@@H](CC[C@@H](NC(C)=O)[C@]2(C)O)[C@](C)(CCC2=CC(=O)OC2)[C@@H]1C
NCI-H460
  growth inhibition (GI): inactive
Staphylococcus aureus [1]
  growth inhibition (GI): inactive
